Results taken from patent publication US20120100071A1, “SYNTHESIS AND USE OF RADIOLABELLED INSULIN ANALOGUES” (priority 2009, published 2012).

Test system: Akt1 phosphorylation (S473) in H4IIE cells
Assay: Akt1 activation, phospho-Akt1 (Ser473) ELISA
Format: cell-based
Conditions: FIG. 10c
Experimental: The insulin receptor autophosphorylation was assessed through the use of an enzyme-linked immunosorbant assay (ELISA). […] Finally, to probe the downstream signaling resulting from insulin binding, a second ELISA experiment was performed to monitor stimulation of Akt phosphorylation (S473).
Confluent H4IIE cells were serum deprived for 4 hours in […] β-mercaptoethanol and 0.25% bovine serum albumin. […] Cells were lysed in 0.5 ml 1× Cell Lysis Buffer (Cell Signaling, #7160) and cells broken open by brief sonication. Lysates were collected and centrifuged for 10 minutes at 14,000 rpm. Supernatants were recovered, diluted 1:1 with Sample Diluent, and phospho-Akt1 was quantitated in 100 μL of each diluted supernatant using the PathScan phospho-Akt1 (Ser473) ELISA (Cell Signaling, #7160).

B^1-[Re(CO)3{bis(2-pyridylmethyl)pentanoyl-6-aminohexanoyl)}]insulin [compound 6]
Akt phosphorylation (S473) response compared to unmodified human insulin: not significantly different
